# Data: patent publication US10577378B2, “EIF4A-inhibiting compounds and methods related thereto” (eFFECTOR Therapeutics, Inc., priority 2015, dated 2020)
# Tested on: MDA-MB-231 human breast cancer cells
# Assay: Cell proliferation assay (CellTiter-Glo, 72 hours treatment)
# Format: cell-based
# Conditions: Homo sapiens; MDA-MB-231 cells, 72 hours at 37° C., CellTiter-Glo; read-out: MDA-MB-231 cell proliferation assay (IC50)
# Procedure, shortened: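 IC50 categories: under 100 nM +++, 100–1000 nM ++, above 1000 nM +, derived by sigmoidal curve fitting of CellTiter-Glo luminescence. Cells plated at 2,500 per well, dosed the following day and exposed 72 h at 37 °C versus DMSO control.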
row,Compound,IC50 [nM]
1,"COc1nc(C#N)cc2c1[C@]1(O)[C@H](O)[C@H](CN3CCC(F)CC3)[C@@H](c3ccccc3)[C@]1(c1ccc(C#N)cc1)O2 (racemic) [156Fc, Rac-(5aR,6S,7S,8R,8aS)-5a-(4-cyanophenyl)-7-((4-fluoropiperidin-1-yl)methyl)-8,8a-dihydroxy-1-methoxy-6-phenyl-5a,7,8,8a-tetrahydro-6H-cyclopenta[4,5]furo[3,2-c]pyridine-3-carbonitrile]",< 100
2,"COc1nc(C#N)cc2c1[C@]1(O)[C@H](O)[C@H](CN3CCC(F)(F)CC3)[C@@H](c3ccccc3)[C@]1(c1ccc(Br)cc1)O2 (racemic) [157Fa, Rac-(5aR,6S,7S,8R,8aS)-5a-(4-bromophenyl)-7-((4,4-difluoropiperidin-1-yl)methyl)-8,8a-dihydroxy-1-methoxy-6-phenyl-5a,7,8,8a-tetrahydro-6H-cyclopenta[4,5]furo[3,2-c]pyridine-3-carbonitrile]",100 to 1000
3,"COc1nc(Cl)cc2c1[C@]1(O)[C@H](O)[C@H](CN3CCC(F)(F)CC3)[C@@H](c3ccccc3)[C@]1(c1ccc(C#N)cc1)O2 (racemic) [157Fb, Rac-4-((5aR,6S,7S,8R,8aS)-3-chloro-7-((4,4-difluoropiperidin-1-yl)methyl)-8,8a-dihydroxy-1-methoxy-6-phenyl-6,7,8,8a-tetrahydro-5aH-cyclopenta[4,5]furo[3,2-c]pyridin-5a-yl)benzonitrile]",100 to 1000
4,"COc1nc(C#N)cc2c1[C@]1(O)[C@H](O)[C@H](CN3CCC(F)(F)CC3)[C@@H](c3ccccc3)[C@]1(c1ccc(C#N)cc1)O2 (racemic) [157Fc, Rac-(5aR,6S,7S,8R,8aS)-5a-(4-cyanophenyl)-7-((4,4-difluoropiperidin-1-yl)methyl)-8,8a-dihydroxy-1-methoxy-6-phenyl-5a,7,8,8a-tetrahydro-6H-cyclopenta[4,5]furo[3,2-c]pyridine-3-carbonitrile]",100 to 1000
5,"COc1nc(C#N)cc2c1[C@]1(O)[C@H](O)[C@H](CN3CCCC3)[C@@H](c3ccccc3)[C@]1(c1ccc(Br)cc1)O2 (racemic) [158Fa, Rac-(5aR,6S,7S,8R,8aS)-5a-(4-bromophenyl)-8,8a-dihydroxy-1-methoxy-6-phenyl-7-(pyrrolidin-1-ylmethyl)-5a,7,8,8a-tetrahydro-6H-cyclopenta[4,5]furo[3,2-c]pyridine-3-carbonitrile]",< 100
6,"COc1nc(Cl)cc2c1[C@]1(O)[C@H](O)[C@H](CN3CCCC3)[C@@H](c3ccccc3)[C@]1(c1ccc(C#N)cc1)O2 (racemic) [158Fb, Rac-4-((5aR,6S,7S,8R,8aS)-3-chloro-8,8a-dihydroxy-1-methoxy-6-phenyl-7-(pyrrolidin-1-ylmethyl)-6,7,8,8a-tetrahydro-5aH-cyclopenta[4,5]furo[3,2-c]pyridin-5a-yl)benzonitrile]",< 100
7,"COc1nc(C#N)cc2c1[C@]1(O)[C@H](O)[C@H](CN3CCCC3)[C@@H](c3ccccc3)[C@]1(c1ccc(C#N)cc1)O2 (racemic) [158Fc, Rac-(5aR,6S,7S,8R,8aS)-5a-(4-cyanophenyl)-8,8a-dihydroxy-1-methoxy-6-phenyl-7-(pyrrolidin-1-ylmethyl)-5a,7,8,8a-tetrahydro-6H-cyclopenta[4,5]furo[3,2-c]pyridine-3-carbonitrile]",< 100
8,"CCN(CC)C[C@H]1[C@@H](O)[C@@]2(O)c3c(cc(C#N)nc3OC)O[C@@]2(c2ccc(Br)cc2)[C@@H]1c1ccccc1 (racemic) [159Fa, Rac-(5aR,6S,7S,8R,8aS)-5a-(4-bromophenyl)-7-((diethylamino)methyl)-8,8a-dihydroxy-1-methoxy-6-phenyl-5a,7,8,8a-tetrahydro-6H-cyclopenta[4,5]furo[3,2-c]pyridine-3-carbonitrile]",< 100
9,"CCN(CC)C[C@H]1[C@@H](O)[C@@]2(O)c3c(cc(Cl)nc3OC)O[C@@]2(c2ccc(C#N)cc2)[C@@H]1c1ccccc1 (racemic) [159Fb, Rac-4-((5aR,6S,7S,8R,8aS)-3-chloro-7-((diethylamino)methyl)-8,8a-dihydroxy-1-methoxy-6-phenyl-6,7,8,8a-tetrahydro-5aH-cyclopenta[4,5]furo[3,2-c]pyridin-5a-yl)benzonitrile]",< 100
10,"CCN(CC)C[C@H]1[C@@H](O)[C@@]2(O)c3c(cc(C#N)nc3OC)O[C@@]2(c2ccc(C#N)cc2)[C@@H]1c1ccccc1 (racemic) [159Fc, Rac-(5aR,6S,7S,8R,8aS)-5a-(4-cyanophenyl)-7-((diethylamino)methyl)-8,8a-dihydroxy-1-methoxy-6-phenyl-5a,7,8,8a-tetrahydro-6H-cyclopenta[4,5]furo[3,2-c]pyridine-3-carbonitrile]",< 100
11,"O[C@@H]1[C@H](Sc2ccccn2)[C@@H](c2ccccc2)[C@]2(c3ccc(Br)cc3)Oc3cc(Cl)cnc3[C@]12O (racemic) [160Fa, Rac-(5aR,6S,7R,8S,8aS)-5a-(4-bromophenyl)-3-chloro-6-phenyl-7-(pyridin-2-ylthio)-5a,6,7,8-tetrahydro-8aH-cyclopenta[4,5]furo[3,2-b]pyridine-8,8a-diol]",100 to 1000
12,"O[C@H]1[C@H](Sc2ccccn2)[C@@H](c2ccccc2)[C@]2(c3ccc(Br)cc3)Oc3cc(Cl)cnc3[C@]12O (racemic) [160Fb, Rac-(5aR,6S,7R,8R,8aS)-5a-(4-bromophenyl)-3-chloro-6-phenyl-7-(pyridin-2-ylthio)-5a,6,7,8-tetrahydro-8aH-cyclopenta[4,5]furo[3,2-b]pyridine-8,8a-diol]",> 1000
13,"COC(=O)[C@@H]1[C@@H](c2ccccc2)[C@]2(c3ccc(Br)cc3)Oc3cc(Cl)cnc3[C@@]23O[C@@H]13 (racemic) [161F, Rac-methyl (1aS,2R,3S,3aR,8bS)-3a-(4-bromophenyl)-6-chloro-3-phenyl-1a,2,3,3a-tetrahydro-oxireno[2″,3″:1′,5′]cyclopenta[1′,2′:4,5]furo[3,2-b]pyridine-2-carboxylate]",> 1000
14,"OC[C@H]1C[C@@H](c2ccccc2)[C@]2(c3ccc(Br)cc3)Oc3cc(Cl)cnc3[C@]12O (racemic) [162F, Rac-(5aR,6S,8R,8aR)-5a-(4-bromophenyl)-3-chloro-8-(hydroxymethyl)-6-phenyl-5a,6,7,8-tetrahydro-8aH-cyclopenta[4,5]furo[3,2-b]pyridin-8a-ol]",100 to 1000
15,"O=S(=O)(c1ccccn1)[C@H]1[C@@H](O)[C@@]2(O)c3ncc(Cl)cc3O[C@@]2(c2ccc(Br)cc2)[C@@H]1c1ccccc1 (racemic) [163F, rac-(5aR,6S,7R,8S,8aS)-5a-(4-bromophenyl)-3-chloro-6-phenyl-7-(pyridin-2-ylsulfonyl)-5a,6,7,8-tetrahydro-8aH-cyclopenta[4,5]furo[3,2-b]pyridine-8,8a-diol]",100 to 1000
16,"N#Cc1ccc([C@@]23Oc4cc(Cl)cnc4[C@]2(O)[C@H](O)[C@H](S(=O)(=O)c2ccccn2)[C@H]3c2ccccc2)cc1 (racemic) [164F, Rac-4-((5aR,6S,7R,8S,8aS)-3-chloro-8,8a-dihydroxy-6-phenyl-7-(pyridin-2-ylsulfonyl)-6,7,8,8a-tetrahydro-5aH-cyclopenta[4,5]furo[3,2-b]pyridin-5a-yl)benzonitrile]",100 to 1000
17,"NC[C@@H]1C[C@@H](c2ccccc2)[C@]2(c3ccc(Br)cc3)Oc3cc(Cl)cnc3[C@]12O (racemic) [165F, Rac-(5aR,6S,8S,8aR)-8-(aminomethyl)-5a-(4-bromophenyl)-3-chloro-6-phenyl-5a,6,7,8-tetra-hydro-8aH-cyclopenta[4,5]furo[3,2-b]pyridin-8a-ol]",100 to 1000
18,"OC[C@@H]1C[C@@H](c2ccccc2)[C@]2(c3ccc(Br)cc3)Oc3cc(Cl)cnc3[C@]12O (racemic) [166F, rac-(5aR,6S,8S,8aR)-5a-(4-bromophenyl)-3-chloro-8-(hydroxymethyl)-6-phenyl-5a,6,7,8-tetrahydro-8aH-cyclopenta[4,5]furo[3,2-b]pyridin-8a-ol]",100 to 1000
19,"N#Cc1ccc([C@@]23Oc4cc(Cl)cnc4[C@]2(O)[C@@H](CO)C[C@H]3c2ccccc2)cc1 (racemic) [167F, Rac-4-((5aR,6S,8R,8aR)-3-chloro-8a-hydroxy-8-(hydroxymethyl)-6-phenyl-6,7,8,8a-tetrahydro-5aH-cyclopenta[4,5]furo[3,2-b]pyridin-5a-yl)benzonitrile]",100 to 1000
20,"N#Cc1ccc([C@@]23Oc4cc(Cl)cnc4[C@]2(O)[C@H](CO)C[C@H]3c2ccccc2)cc1 (racemic) [168F, Rac-4-((5aR,6S,8S,8aR)-3-chloro-8a-hydroxy-8-(hydroxymethyl)-6-phenyl-6,7,8,8a-tetrahydro-5aH-cyclopenta[4,5]furo[3,2-b]pyridin-5a-yl)benzonitrile]",> 1000
21,"O=C1O[C@@H]2[C@H]1[C@@H](c1ccccc1)[C@]1(c3ccc(Br)cc3)Oc3cc(Cl)cnc3[C@]21O (racemic) [169F, Rac-(2aR,3S,3aR,8bS,8cR)-3a-(4-bromophenyl)-6-chloro-8b-hydroxy-3-phenyl-3,3a,8b,8c-tetrahydrooxeto[3″,2″:4′,5′]cyclopenta[1′,2′:4,5]furo[3,2-b]pyridin-2(2aH)-one]",> 1000
22,"COc1cncc2c1[C@]1(O)[C@@H](CN)[C@H](CO)[C@@H](c3ccccc3)[C@]1(c1ccc(Br)cc1)O2 (racemic) [170F, Rac-(4bR,5R,6R,7S,7aR)-5-(aminomethyl)-7a-(4-bromophenyl)-6-(hydroxymethyl)-4-methoxy-7-phenyl-5,6,7,7a-tetrahydro-4bH-cyclopenta[4,5]furo[2,3-c]pyridin-4b-ol]",< 100
23,"COc1cncc2c1[C@]1(O)[C@@H](CN)[C@H](CO)[C@@H](c3ccccc3)[C@]1(c1ccc(C#N)cc1)O2 (racemic) [171F, Rac-4-((4bR,5R,6R,7S,7aR)-5-(aminomethyl)-4b-hydroxy-6-(hydroxymethyl)-4-methoxy-7-phenyl-4b,5,6,7-tetrahydro-7aH-cyclopenta[4,5]furo[2,3-c]pyridin-7a-yl)benzonitrile]",100 to 1000
